Assay results: paper PMC7429951 (Journal of Medicinal Chemistry, 2020)
Where two headings read alike, the source gives them in different places.

Key:
[1] = target: peptidase domain of ColH (ColH-PD) (Hathewaya histolytica, UniProt Q46085); assay: biochemical; parameters: species or system Clostridium histolyticum; conditions: read-out: ColH-PD % inhibition @ 1 μM
LasB [2] = target: T1, LasB (Pseudomonas aeruginosa, UniProt Q02RJ6); assay: biochemical; conditions: LasB IC50, FRET-based assay
LasB [3] = target: T1, LasB
[4] = test system: P. aeruginosa strain PA14; assay: Bacterial growth inhibition assay (MIC) P. aeruginosa; type: cell-based, Pseudomonas aeruginosa

Chain of peptidase domain of ColH (ColH-PD) (Q46085 331-721 limits assumed): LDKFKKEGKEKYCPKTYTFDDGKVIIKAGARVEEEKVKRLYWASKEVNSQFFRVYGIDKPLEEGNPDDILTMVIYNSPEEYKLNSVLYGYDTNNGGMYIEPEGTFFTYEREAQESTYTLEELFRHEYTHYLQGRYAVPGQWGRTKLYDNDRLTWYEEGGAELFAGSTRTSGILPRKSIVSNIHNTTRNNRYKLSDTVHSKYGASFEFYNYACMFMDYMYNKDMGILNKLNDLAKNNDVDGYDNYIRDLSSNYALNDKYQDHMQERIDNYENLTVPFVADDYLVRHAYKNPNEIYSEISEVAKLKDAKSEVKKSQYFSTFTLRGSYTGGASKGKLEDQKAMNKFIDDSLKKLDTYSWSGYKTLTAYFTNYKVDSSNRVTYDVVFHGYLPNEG
T1 sequence (Q02RJ6 198-498): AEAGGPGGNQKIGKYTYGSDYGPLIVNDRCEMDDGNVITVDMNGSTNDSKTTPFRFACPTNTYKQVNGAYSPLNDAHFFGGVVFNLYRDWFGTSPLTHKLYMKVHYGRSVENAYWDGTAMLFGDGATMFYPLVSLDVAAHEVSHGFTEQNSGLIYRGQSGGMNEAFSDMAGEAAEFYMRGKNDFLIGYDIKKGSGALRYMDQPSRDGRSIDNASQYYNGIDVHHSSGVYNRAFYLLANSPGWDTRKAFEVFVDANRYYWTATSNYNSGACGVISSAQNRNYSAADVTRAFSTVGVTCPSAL

Compound: O=C1CC(S)C(=O)N1c1ccccc1 (centres unmarked) [Compound 7]
- inhibition at 1 µM [1]: 8 ± 2%
- IC50 (LasB [2]): 44.2 ± 2.3 µM

Compound: Cc1ccc(N2C(=O)CC(S)C2=O)cc1 (centres unmarked) [Compound 8]
- inhibition at 1 µM [1]: 34%
- IC50 (LasB [2]): 50.6 ± 1.6 µM

Compound: Cc1ccc(N2C(=O)CC(S)C2=O)cc1C (centres unmarked) [Compound 9]
- inhibition at 1 µM [1]: 7 ± 2%
- difference in LasB activity between 9 and 22 (LasB [3]; ratio of IC50 values, 9 more active): 5 fold
- IC50 (LasB [2]): 29.4 ± 0.9 µM

Compound: O=C1CC(S)C(=O)N1c1ccccc1Cl (centres unmarked) [Compound 10]
- inhibition at 1 µM [1]: 8 ± 1%
- IC50 (LasB [2]): 8.5 ± 0.4 µM

Compound: O=C1CC(S)C(=O)N1c1cccc(Cl)c1 (centres unmarked) [Compound 11]
- inhibition at 1 µM [1]: 0%
- IC50 (LasB [2]): 8.1 ± 0.5 µM

Compound: O=C1CC(S)C(=O)N1c1ccc(Cl)cc1 (centres unmarked) [Compound 12]
- inhibition at 1 µM [1]: 33%
- IC50 (LasB [2]): 16.5 ± 0.8 µM

Compound: O=C1CC(S)C(=O)N1c1c(Cl)cccc1Cl (centres unmarked) [Compound 14]
- inhibition at 1 µM [1]: 8 ± 3%
- IC50 (LasB [2]): 16 ± 3.7 µM

Compound: O=C1CC(S)C(=O)N1c1ccc(F)c(F)c1 (centres unmarked) [Compound 15]
- MIC [4]: >100 µM
- MIC ([4]; Pseudomonas aeruginosa): > 100 µM
- inhibition at 1 µM [1]: 2 ± 2%
- IC50 (LasB [2]): 3.5 ± 0.2 µM

Compound: Cc1ccc(Cl)cc1N1C(=O)CC(S)C1=O (centres unmarked) [Compound 16]
- inhibition at 1 µM [1]: 6 ± 1%
- IC50 (LasB [2]): 15 ± 0.6 µM

Compound: Cc1ccc(Cl)c(C)c1N1C(=O)CC(S)C1=O (centres unmarked) [Compound 17]
- inhibition at 1 µM [1]: 6 ± 5%
- IC50 (LasB [2]): 30.5 ± 5.4 µM

Compound: COc1ccccc1N1C(=O)CC(S)C1=O (centres unmarked) [Compound 18]
- inhibition at 1 µM [1]: 0%
- IC50 (LasB [2]): 28.9 ± 1.6 µM

Compound: COc1cccc(N2C(=O)CC(S)C2=O)c1 (centres unmarked) [Compound 19]
- inhibition at 1 µM [1]: -3 ± 9%
- IC50 (LasB [2]): 40.2 ± 1.4 µM

Compound: COc1ccc(N2C(=O)CC(S)C2=O)c(OC)c1 (centres unmarked) [Compound 21]
- inhibition at 1 µM [1]: 2 ± 13%
- IC50 (LasB [2]): 45 ± 0.8 µM

Compound: COc1ccc(N2C(=O)CC(S)C2=O)cc1OC (centres unmarked) [Compound 22]
- inhibition at 1 µM [1]: 3 ± 11%
- loss in LasB activity compared to 13 (LasB [3]; ratio of IC50 values): 47 fold
- IC50 (LasB [2]): 160 ± 10.1 µM

Compound: O=C1CC(S)C(=O)N1c1ccc(OC(F)(F)F)c(Cl)c1 (centres unmarked) [Compound 23]
- inhibition at 1 µM [1]: 18 ± 12%
- IC50 (LasB [2]): 55.2 ± 4.4 µM

Compound: O=C1CC(S)C(=O)N1c1cccc([N+](=O)[O-])c1 (centres unmarked) [Compound 24]
- inhibition at 1 µM [1]: 4 ± 4%
- IC50 (LasB [2]): 22.2 ± 0.4 µM

Compound: O=C1CC(S)C(=O)N1c1cccc(-c2ccccc2)c1 (centres unmarked) [Compound 26]
- inhibition at 1 µM [1]: 7 ± 4%
- fold more active on LasB than compound 7 (LasB [3]): 1.6 fold
- IC50 (LasB [2]): 27.6 ± 4 µM

Compound: O=C1CC(S)C(=O)N1c1ccc(-c2ccccc2)cc1 (centres unmarked) [Compound 27]
- inhibition at 1 µM [1]: 5 ± 2%
- IC50 (LasB [2]): 44.6 ± 1.1 µM

Compound: COc1ccc(N2C(=O)CC(SC(C)=O)C2=O)cc1 (centres unmarked) [Compound 28]
- inhibition at 1 µM [1]: 24 ± 2%
- IC50 (LasB [2]): > 200 µM

Compound: CC(=O)SC1CC(=O)N(c2ccc(Cl)c(Cl)c2)C1=O (centres unmarked) [Compound 29]
- inhibition at 1 µM [1]: -1 ± 7%
- IC50 (LasB [2]): > 200 µM

Compound: CC(=O)SC1CC(=O)N(c2ccc(OC(F)(F)F)c(Cl)c2)C1=O (centres unmarked) [Compound 30]
- inhibition at 1 µM [1]: -11 ± 2%
- IC50 (LasB [2]): > 200 µM

Compound: CC(=O)SCC1CC(=O)N(c2ccccc2)C1=O (centres unmarked) [Compound 40]
- inhibition at 1 µM [1]: -15 ± 5%
- IC50 (LasB [2]): > 200 µM

Compound: CC(=O)SCC1CC(=O)N(c2ccc(Cl)c(Cl)c2)C1=O (centres unmarked) [Compound 41]
- inhibition at 1 µM [1]: -1 ± 2%
- IC50 (LasB [2]): > 200 µM

Compound: CC(=O)SCC1CC(=O)N(c2ccc(C(C)=O)cc2)C1=O (centres unmarked) [Compound 42]
- inhibition at 1 µM [1]: 2 ± 5%
- IC50 (LasB [2]): > 200 µM

Compound: COc1ccc(N2C(=O)CC(CSC(C)=O)C2=O)cc1 (centres unmarked) [Compound 43]
- inhibition at 1 µM [1]: 4 ± 6%
- IC50 (LasB [2]): > 200 µM

Compound: O=C1CC(CS)C(=O)N1c1ccc(Cl)c(Cl)c1 (centres unmarked) [Compound 50]
- MIC [4]: >100 µM
- MIC ([4]; Pseudomonas aeruginosa): > 100 µM
- inhibition at 1 µM [1]: 2 ± 3%
- IC50 (LasB [2]): 5.4 ± 0.7 µM

Compound: O=C1CC(CS)C(=O)N1c1ccc(F)c(F)c1 (centres unmarked) [Compound 51]
- MIC [4]: >100 µM
- MIC ([4]; Pseudomonas aeruginosa): > 100 µM
- inhibition at 1 µM [1]: 2 ± 1%
- IC50 (LasB [2]): 10.1 ± 1.4 µM

Compound: CC(=O)c1ccc(N2C(=O)CC(CS)C2=O)cc1 (centres unmarked) [Compound 52]
- inhibition at 1 µM [1]: 8 ± 3%
- IC50 (LasB [2]): > 200 µM
